Measured values taken from patent publication EP2719696A1, “NOVEL KINASE INHIBITORS” (Asinex Limited, priority 2011, dated 2012).
Like-named read-outs stand apart in the source and are kept apart here.

Tests used:
PDGFR-α = PDGFR-α (Homo sapiens, UniProt P16234); assay: Kinase inhibition assay (ELISA); format: biochemical; settings: 1 µM ATP
Method: (§1) To determine the interaction of our compounds with tyrosine kinases: PDGFR-α, cKIT, PDGFR-β, VEGFR-2 we used enzyme-linked immunosorbent assay (ELISA).
(§2) Determination plates preparation: The plates are processed by neutravidine for 2 h at 30°C. After washing thrice with TBS/0.1% Tween-20 and blocking with 1% BSA/TBS for 1 h at room temperature (RT) 96-well microtiter plates were washed thrice with TBS/0.1% Tween-20 again.
(§3) Reaction: After addition test compounds (in DMSO, DMSO final concentration - 5%) to reaction buffer (20 mM HEPES, pH 7.5, 15 mM MgCl2, 3 mM MnCl2, 2 mM DTT, 0.2 mM Na3VO4, 0.005% Triton X-100; PDGFR-α,: 0.05 µg/ml, 0.5 µg/ml Poly(G,T)-biotin; PDGFR-β: 0.05 µg/ml, 1 µg/ml Poly(G,T)-biotin; c-KIT: 0.03 µg/ml, 0.15 µg/ml Poly(G,T)-biotin; VEGFR-2: 0.07 µg/ml, 0.05 µg/ml Poly(G,T)-biotin) and preincubation of reaction for 10 min at RT and intensive agitation, ATP solution (PDGFR-α, - 1 µM, PDGFR-β - 0.5 µM, c-KIT - 60 µM, VEGFR-2: - 1.5 µM ATP in reaction buffer per well) was added to initiate reaction. Following incubation of mixture for 1 h at 30°C and intensive agitation the reaction was stopped by stop solution (20 mM HEPES, pH 7.5, 50 mM EDTA).
(§4) Kinase activity determination: The reaction mixture was transferred to determination plate. After mix incubation for 1 h at RT and intensive agitation the plates were washed thrice with TBS/0.1% Tween-20. Following mouse monoclonal 0.05 µg/ml Anti-p-Tyr (PY20) HRP antibodies (Santa Cruz Biotechnology) in PBS/BSA were added for 1 h at RT and intensive agitation. After washing, antibody binding was detected by tetramethylbenzidine (TMB) color development (Sigma). Measurement of A450 nm was carried out after addition of H2SO4

VEGFR-2 = VEGFR-2 (Homo sapiens, UniProt P35968); assay: Kinase inhibition assay (ELISA); format: biochemical; settings: 1.5 µM ATP
Chain of VEGFR-2 (P35968 20-1356, species assumed): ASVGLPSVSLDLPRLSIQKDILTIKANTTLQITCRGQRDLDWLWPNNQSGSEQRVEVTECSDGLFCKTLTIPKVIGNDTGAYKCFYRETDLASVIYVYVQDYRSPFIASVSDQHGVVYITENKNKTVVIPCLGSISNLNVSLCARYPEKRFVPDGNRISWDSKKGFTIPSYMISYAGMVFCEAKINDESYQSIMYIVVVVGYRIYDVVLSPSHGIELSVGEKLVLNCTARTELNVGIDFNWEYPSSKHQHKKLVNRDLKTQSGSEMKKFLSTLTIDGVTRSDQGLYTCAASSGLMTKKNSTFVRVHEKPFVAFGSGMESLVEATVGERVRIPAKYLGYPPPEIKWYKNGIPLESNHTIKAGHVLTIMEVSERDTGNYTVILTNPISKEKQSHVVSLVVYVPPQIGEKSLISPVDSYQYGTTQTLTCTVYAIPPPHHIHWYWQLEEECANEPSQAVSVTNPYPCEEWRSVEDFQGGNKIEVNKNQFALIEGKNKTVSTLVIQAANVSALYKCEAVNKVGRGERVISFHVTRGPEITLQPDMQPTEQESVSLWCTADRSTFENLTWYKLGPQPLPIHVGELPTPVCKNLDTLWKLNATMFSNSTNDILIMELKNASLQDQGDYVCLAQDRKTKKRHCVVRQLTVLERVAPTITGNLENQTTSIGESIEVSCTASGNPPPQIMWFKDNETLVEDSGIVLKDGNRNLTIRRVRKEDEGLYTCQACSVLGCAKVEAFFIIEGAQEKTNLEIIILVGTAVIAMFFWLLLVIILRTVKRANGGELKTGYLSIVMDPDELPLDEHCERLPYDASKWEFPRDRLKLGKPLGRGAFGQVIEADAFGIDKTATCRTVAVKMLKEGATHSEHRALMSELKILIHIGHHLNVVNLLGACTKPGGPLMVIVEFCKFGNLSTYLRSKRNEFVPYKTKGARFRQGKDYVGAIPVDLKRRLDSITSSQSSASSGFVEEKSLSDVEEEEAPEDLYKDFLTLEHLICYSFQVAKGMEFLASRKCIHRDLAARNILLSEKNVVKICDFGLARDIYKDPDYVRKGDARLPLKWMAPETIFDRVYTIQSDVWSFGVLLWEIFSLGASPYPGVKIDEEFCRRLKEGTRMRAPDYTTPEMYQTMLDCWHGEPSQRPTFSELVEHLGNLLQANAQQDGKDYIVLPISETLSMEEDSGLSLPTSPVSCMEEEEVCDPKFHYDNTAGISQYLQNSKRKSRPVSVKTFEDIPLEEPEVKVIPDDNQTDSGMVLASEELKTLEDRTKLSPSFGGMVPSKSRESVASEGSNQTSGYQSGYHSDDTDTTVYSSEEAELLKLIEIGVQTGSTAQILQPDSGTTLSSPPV
Method: as §1, §2, §3, §4

cKIT = cKIT (Homo sapiens, UniProt P10721); assay: Kinase inhibition assay (ELISA); format: biochemical; settings: 60 µM ATP
Chain of cKIT (P10721 26-976): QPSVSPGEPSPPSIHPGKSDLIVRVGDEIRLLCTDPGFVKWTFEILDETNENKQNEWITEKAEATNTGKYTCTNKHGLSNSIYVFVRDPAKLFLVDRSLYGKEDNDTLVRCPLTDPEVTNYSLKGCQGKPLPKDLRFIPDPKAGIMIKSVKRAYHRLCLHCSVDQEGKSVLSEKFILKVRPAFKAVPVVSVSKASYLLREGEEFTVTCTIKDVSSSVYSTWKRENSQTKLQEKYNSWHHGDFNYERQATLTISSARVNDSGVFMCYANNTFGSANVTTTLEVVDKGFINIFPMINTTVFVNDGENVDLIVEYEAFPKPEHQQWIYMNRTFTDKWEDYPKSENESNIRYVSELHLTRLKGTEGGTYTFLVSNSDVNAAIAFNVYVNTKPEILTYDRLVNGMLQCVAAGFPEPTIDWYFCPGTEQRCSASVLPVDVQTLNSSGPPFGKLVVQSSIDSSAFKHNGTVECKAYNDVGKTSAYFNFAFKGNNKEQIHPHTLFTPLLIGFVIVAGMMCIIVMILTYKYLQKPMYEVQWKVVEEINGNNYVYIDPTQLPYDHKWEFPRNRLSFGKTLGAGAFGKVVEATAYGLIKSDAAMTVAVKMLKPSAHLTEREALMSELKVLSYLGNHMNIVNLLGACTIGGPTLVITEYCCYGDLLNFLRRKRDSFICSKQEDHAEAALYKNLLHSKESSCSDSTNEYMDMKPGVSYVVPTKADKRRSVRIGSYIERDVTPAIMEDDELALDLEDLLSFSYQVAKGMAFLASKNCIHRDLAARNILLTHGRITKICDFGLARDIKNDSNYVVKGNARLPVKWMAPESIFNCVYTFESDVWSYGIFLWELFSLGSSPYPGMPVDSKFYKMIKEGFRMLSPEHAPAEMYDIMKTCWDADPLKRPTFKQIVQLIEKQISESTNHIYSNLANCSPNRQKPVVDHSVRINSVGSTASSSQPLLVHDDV
Method: as §1, §2, §3, §4

A172 = assay: MTT proliferation / cytotoxicity assay; format: cell-based, human; settings: Homo sapiens, A 172, 72 h, glioblastoma cell line
Method: (§5) Cell culture. The human cancer cell lines A172, A375, A2780 and U251 were purchased from the American Type Culture Collection. All cells were routinely maintained in DMEM containing 10% fetal bovine serum (Omega Scientific), at 37°C in 5% C02.
(§6) Proliferation assay Inhibition of cell A172, A375, A2780 and U251 cell proliferation was assessed by a MTT assay (MTT = Thiazolyl Blue Tetrazolium Bromide) . Cells were inoculated into 96-well microtiter plates containing 0.5% fetal calf serum and incubated at 37°C, 5% CO2, 95% air, and 100% relative humidity for 24 h prior to addition of testing compounds. Following compounds addition, the plates were incubated for an additional 72 h before processing to measure the cell population. Each compound was tested at eight different concentrations in triplicate, as was a control sample. Growth inhibition of 50% (IC50) is calculated by analysis of the data in Prizm3.4 software.
(§7) Table 8 lists IC50 values for inhibition of growth of several cancer cell lines, including the glioblastoma cell lines A172 and U251, measured in a MTT cytotoxicity assay. Table 8. Data of cytotoxicity assay (MTT) for several cancer cell lines, IC50 [µM]

A2780 = assay: MTT proliferation / cytotoxicity assay; format: cell-based, human; settings: Homo sapiens, A2780, 72 h
Method: as §5, §6, §7

A375 = assay: MTT proliferation / cytotoxicity assay; format: cell-based, human; settings: Homo sapiens, A-375, 72 h
Method: as §5, §6, §7

U251 = assay: MTT proliferation / cytotoxicity assay; format: cell-based, human; settings: Homo sapiens, U-251, 72 h, glioblastoma cell line
Method: as §5, §6, §7

[1] = In vivo PK study, determination of brain-to-plasma ratio; settings: mouse, SHK mice, PO dosing 5mg/kg, 20% water solution of HPβCD, read-out: brain-to-plasma concentration ratio
Method: Male SHK mice (22-25 g) were dosed with 5 mg/kg of related compounds as a single injection via oral gavage (formulated in 20% water solution of HPβCD). Blood samples and whole brains were collected from three mice at each of eight collection time points of 0.05, 0.25, 0.5, 1, 2, 4, 8 and 24 h post dose. Plasma was collected from blood samples, and whole brain samples were homogenized in three volumes of water. Both tissues were analyzed for concentrations of related compounds by liquid chromatography-mass spectrometry (LC-MS/MS). Table 9. brain-to-plasma concentration ratios in SHK mice after PO dosing 5mg/kg for several selected examples

Chain of PDGFR-α (P16234 24-1089, species assumed): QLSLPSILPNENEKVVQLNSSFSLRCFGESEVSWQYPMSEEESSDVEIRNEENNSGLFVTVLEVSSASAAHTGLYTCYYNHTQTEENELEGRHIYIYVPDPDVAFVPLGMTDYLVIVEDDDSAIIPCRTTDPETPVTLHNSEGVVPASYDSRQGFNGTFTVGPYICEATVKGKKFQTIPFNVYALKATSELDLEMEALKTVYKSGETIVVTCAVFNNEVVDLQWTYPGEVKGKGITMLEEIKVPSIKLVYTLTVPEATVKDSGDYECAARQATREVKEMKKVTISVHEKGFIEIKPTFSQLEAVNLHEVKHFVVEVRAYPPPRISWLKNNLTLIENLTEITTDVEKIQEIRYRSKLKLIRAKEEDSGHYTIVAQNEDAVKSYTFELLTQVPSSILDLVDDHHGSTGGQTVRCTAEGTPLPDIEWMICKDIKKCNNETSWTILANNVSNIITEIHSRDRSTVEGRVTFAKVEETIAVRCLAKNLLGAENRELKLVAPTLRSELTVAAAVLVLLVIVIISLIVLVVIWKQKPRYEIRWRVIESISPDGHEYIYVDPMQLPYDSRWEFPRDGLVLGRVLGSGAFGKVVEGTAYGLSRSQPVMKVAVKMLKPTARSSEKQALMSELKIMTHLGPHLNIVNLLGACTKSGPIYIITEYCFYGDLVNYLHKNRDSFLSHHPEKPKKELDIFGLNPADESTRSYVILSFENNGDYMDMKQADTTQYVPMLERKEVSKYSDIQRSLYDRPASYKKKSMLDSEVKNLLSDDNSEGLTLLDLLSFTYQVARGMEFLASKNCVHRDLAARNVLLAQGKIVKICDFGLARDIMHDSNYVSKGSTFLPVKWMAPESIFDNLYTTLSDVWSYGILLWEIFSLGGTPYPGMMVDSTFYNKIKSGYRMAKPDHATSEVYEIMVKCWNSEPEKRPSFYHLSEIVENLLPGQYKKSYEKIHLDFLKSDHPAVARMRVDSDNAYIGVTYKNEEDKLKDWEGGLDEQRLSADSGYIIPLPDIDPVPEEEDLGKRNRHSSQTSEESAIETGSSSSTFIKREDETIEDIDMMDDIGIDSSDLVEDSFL

Row | SMILES | IC50 (PDGFR-α) | IC50 (VEGFR-2) | IC50 (cKIT) | IC50 (A172) | IC50 (A2780) | IC50 (A375) | IC50 (U251) | Kp ([1]; male, brain/plasma) | Kp ([1]; brain)
1 | OCCN1CCC(Cc2ccnc(Nc3ncc(-c4ccc(F)cc4)s3)c2)CC1 [Example 003, 2-(4-{2-[5-(4-Fluoro-phenyl)-thiazol-2-ylamino]-pyridin-4-ylmethyl}-piperidin-1-yl)-ethanol] | < 10 nM | > 10 nM | > 10 nM | ≤ 1 µM | > 1 µM | > 1 µM | > 10 µM | 3.66 | 
2 | Fc1ccc(-c2cnc(Nc3cc(CC4CNCCOC4)ccn3)s2)cc1 (centres unmarked) [Example 009, [5-(4-Fluoro-phenyl)-thiazol-2-yl]-(4-[1,4]oxazepan-6-ylmethyl-pyridin-2-yl)-amine] | < 10 nM | > 10 nM | < 10 nM | > 10 µM | > 1 µM | > 1 µM | > 10 µM | 10.3 | 
3 | OCCN1CCOCC(Cc2ccnc(Nc3ncc(-c4ccc(F)cc4)s3)c2)C1 (centres unmarked) [Example 011, 2-(6-{2-[5-(4-Fluoro-phenyl)-thiazol-2-ylamino]-pyridin-4-ylmethyl}-[1,4]oxazepan-4-yl)-ethanol] | < 10 nM | > 10 nM | > 10 nM | > 1 µM | > 1 µM | > 1 µM | > 10 µM | 12.7 | 
4 | Fc1ccc(-c2cnc(Nc3cccc(CC4CNCCOC4)n3)s2)cc1 (centres unmarked) [Example 013, [5-(4-Fluoro-phenyl)-thiazol-2-yl]-(6-[1,4]oxazepan-6-ylmethyl-pyridin-2-yl)-amine] | > 100 nM | > 1000 nM | > 10 nM | > 1 µM | < 1 µM | ≤ 1 µM | > 1 µM | 0.59 | 
5 | Fc1ccc(-c2cnc(Nc3cc(CC4CNCCNC4)ccn3)s2)cc1 [Example 019, (4-[1,4]Diazepan-6-ylmethyl-pyridin-2-yl)-[5-(4-fluoro-phenyl)-thiazol-2-yl]-amine] | < 10 nM | > 10 nM | < 10 nM | > 10 µM | > 1 µM | > 1 µM | > 10 µM | 0.96 | 
6 | Cc1nc(Nc2ncc(-c3ccccc3)s2)cc(C2CCN(CCO)CC2)n1 [Example 032, 2-{4-[2-Methyl-6-(5-phenyl-thiazol-2-ylamino)-pyrimidin-4-yl]-piperidin-1-yl}-ethanol] | < 10 nM | > 10 nM | > 10 nM | > 1 µM | ≤ 1 µM |  | > 10 µM | 0.81 | 
7 | OCCN1CCC(c2ccnc(Nc3ncc(-c4ccc(F)cc4)s3)c2)CC1 [Example 035] | < 10 nM | < 10 nM | < 10 nM | > 1 µM | > 1 µM | > 1 µM | > 1 µM |  | 18.5
8 | OCCN1CCC(c2ccnc(Nc3ncc(CC(F)(F)F)s3)c2)CC1 [Example 040, 2-{2'-[5-(2,2,2-Trifluoro-ethyl)-thiazol-2-ylamino]-3,4,5,6-tetrahydro-2H-[4,4']bipyridinyl-1-yl}-ethanol] | > 100 nM | > 100 nM | > 100 nM | ≤ 1 µM | > 10 µM | > 1 µM | > 10 µM | 1.38 | 
9 | O=C(Nc1ccccc1Cl)c1cnc(Nc2cc(C3CCN(CCO)CC3)ccn2)s1 [Example 044, 2-[1'-{2-Hydroxy-ethyl)-1',2',3',4',5',6' -hexahydro-[4,4']bipyridinyl-2-ylamino]-thiazole-5-carboxylic acid (2-chlorophenyl)-amide] | < 10 nM | > 100 nM | > 10 nM |  |  | > 1 µM |  | 0.19 | 
